The target of experiment [1] is T1, AR (Rattus norvegicus, UniProt P15207).
T1 construct: endogenous in cells; host or cells: L6 myoblasts
T1 sequence (P15207 1-902): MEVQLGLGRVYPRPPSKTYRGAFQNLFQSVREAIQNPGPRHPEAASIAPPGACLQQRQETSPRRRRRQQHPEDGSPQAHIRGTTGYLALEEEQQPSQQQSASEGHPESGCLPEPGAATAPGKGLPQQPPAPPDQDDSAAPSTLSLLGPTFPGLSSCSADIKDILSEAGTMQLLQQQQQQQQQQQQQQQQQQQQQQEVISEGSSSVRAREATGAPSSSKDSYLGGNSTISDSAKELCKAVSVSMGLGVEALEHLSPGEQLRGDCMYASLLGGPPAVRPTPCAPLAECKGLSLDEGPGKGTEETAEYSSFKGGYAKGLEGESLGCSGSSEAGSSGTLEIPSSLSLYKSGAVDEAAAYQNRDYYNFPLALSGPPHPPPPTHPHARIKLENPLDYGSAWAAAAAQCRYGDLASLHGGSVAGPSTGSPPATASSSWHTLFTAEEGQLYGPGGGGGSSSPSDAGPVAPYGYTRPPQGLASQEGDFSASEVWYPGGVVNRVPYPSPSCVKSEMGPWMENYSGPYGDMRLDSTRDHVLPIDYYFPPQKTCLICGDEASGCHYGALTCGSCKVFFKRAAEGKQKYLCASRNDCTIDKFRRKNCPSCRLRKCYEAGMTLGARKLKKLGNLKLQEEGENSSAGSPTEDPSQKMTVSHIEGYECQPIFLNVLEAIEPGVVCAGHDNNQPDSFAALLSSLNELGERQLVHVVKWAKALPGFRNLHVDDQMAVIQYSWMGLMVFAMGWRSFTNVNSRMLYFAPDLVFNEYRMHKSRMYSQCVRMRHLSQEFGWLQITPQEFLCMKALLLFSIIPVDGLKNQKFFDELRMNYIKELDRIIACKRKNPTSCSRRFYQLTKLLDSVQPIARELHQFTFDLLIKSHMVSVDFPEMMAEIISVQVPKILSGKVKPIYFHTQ
The experiment can be described thus: Androgen-responsive luciferase reporter assay in L6 skeletal muscle cells. Type of experiment: cell-based. As to conditions: FIG. 2B. The text has this:
Luciferase Reporter Assay. Cells were transfected using Lipofectamine Plus (Invitrogen) with a normalization plasmid (pRL-SV40, Promega) and an androgen responsive plasmid (MMTV-luciferase or PSA-luciferase) as described in Jones et al, ACS Chem Biol, 3(7):412-8 (2008), and, where indicated, with an shRNA plasmid targeting FOXM1 (adapted for mouse FOXM1 sequence targeting) a scrambled control shRNA plasmid, or ARQ24 or ARQ65 plasmids. Christensen et al, PLoS One, 8(1):e54556 (2013). The following day, cells and drugs were distributed to 96-well plates. 24 hours later, luciferase activity was assessed by a dual luciferase assay kit (Promega) on the Tecan plate reader. Samples were run in quadruplicates and a Student's t test was performed to determine significance, where p<0.05 was considered significant.
The ability of thiostrepton to inhibit AR activity in additional neuronal cells, including ReNcell CX cells PC12 cells, and in rat L6 skeletal muscle cells was examined (FIG. 2B). Donato et al, BMC Neurosci, 8:36 (2007); Yaffe, Proc Natl Acad Sci USA, 61(2):477-83 (1968).

For experiment [2], the system named is FOXM1. Nature of the experiment: Immunohistochemistry of FOXM1 in spinal cord. Type of experiment: in vivo, rat. As to conditions: rats, FIG. 5C. Here is the method: Animals and Drugs. This study was carried out in strict accordance with the recommendations in the Guide for the Care and Use of Laboratory Animals of the National Institutes of Health. All experiments were performed under the IUCAC approval of City of Hope. Animals were purchased from Jackson Laboratory (Bar Harbor, Main). For the pilot pharmacokinetic experiment, nine male Sprague Dawley rats (n=3) were administered 1, 10, or 100 mg/kg intraperitoneal injections thrice per week for four weeks. One hour following the final dose, blood and spinal fluid were collected and analyzed by mass spectrometry. […] Following a treatment period of 7 days, rats were euthanized and organs harvested, weighed and processed for quantitative RT-PCR.
Immunohistochemistry. […] A veterinary pathologist, blinded to the identity of the treatment groups, scored the spinal cord sections based on the intensity of FOXM1 expression, which was typically uniform across the entirety of a section, creating a scale ranging from 0-2 in both white matter and grey matter. […] As a secondary quantification method, Image J was used to determine pixel density of FOXM1 staining. […]
Intact and castrate cohorts were included as controls. […] As a secondary quantification method, Image J was used to determine pixel density of FOXM1 staining. […]

The structures appear in SMILES notation.

For the molecule `C=C(NC(=O)C(=C)NC(=O)c1csc(C2=N[C@@H]3c4csc(n4)[C@H]4NC(=O)c5csc(n5)[C@H]([C@](C)(O)[C@@H](C)O)NC(=O)[C@H]5CSC(=N5)/C(=C/C)NC(=O)[C@H]([C@@H](C)O)NC(=O)c5csc(n5)[C@]3(CC2)NC(=O)[C@H](C)NC(=O)C(=C)NC(=O)[C@H](C)NC(=O)[C@H]([C@@H](C)CC)N[C@@H]2C=Cc3c([C@H](C)O)cc(nc3[C@H]2O)C(=O)O[C@@H]4C)n1)C(N)=O` [thiostrepton], the “inhibition of AR activity (luciferase)” value in experiment [1] was “not muscle cells”. In experiment [2] (100 mg/kg per day, four weeks, IP osmotic pumps), the “expression of FOXM1 in the spinal cord, scored by veterinary pathologist” value was “significantly reduced”. For the same molecule, the “FOXM1 staining intensity, Image J pixel density” value in experiment [2] (spinal cord, relative to untreated) is listed as “lower intensity”.

For the origin of these results see patent US11167007B2, “FOXM1 modulators and uses thereof” (City of Hope, priority 2016, dated 2021).
